Test results: ChEMBL document CHEMBL3272261, “Aminobenzioc acid diuretics. 8.(2) 3, 4-Disubstituted 5-methylsulfonylbenzioc acids and related compounds” (1976)
Active and inactive are the calls of the source. No cut-off for these calls is given here.

Experiments:
Canis familiaris [1] = test: Diuretic activity in dog assessed as urine volume measured in water at 10 mg/kg, iv after 3 hrs; format: functional, organism-based; design: dose 10 mg/kg; conditions: Canis lupus familiaris
Canis familiaris [2] = test: Saluretic activity in dog assessed as urinary excretion of sodium level at 1 mg/kg, iv after 3 hrs; format: functional, Canis lupus familiaris, Urine
Canis familiaris [3] = test: Saluretic activity in dog assessed as urinary excretion of potassium level at 1 mg/kg, iv after 3 hrs; format: functional, Canis lupus familiaris, Urine
Canis familiaris [4] = test: Diuretic activity in dog assessed as urine volume measured in water at 0.1 mg/kg, iv after 3 hrs; format: functional, Canis lupus familiaris
Canis familiaris [5] = test: Saluretic activity in dog assessed as urinary excretion of chloride level at 1 mg/kg, iv after 3 hrs; format: functional, Canis lupus familiaris, Urine
Canis familiaris [6] = test: Saluretic activity in dog assessed as urinary excretion of sodium level at 0.25 mg/kg, iv after 3 hrs; format: functional, Canis lupus familiaris, Urine
Canis familiaris [7] = test: Diuretic activity in dog assessed as urine volume measured in water at 0.25 mg/kg, iv after 3 hrs; format: functional, Canis lupus familiaris
Canis familiaris [8] = test: Saluretic activity in dog assessed as urinary excretion of potassium level at 0.1 mg/kg, iv after 3 hrs; format: functional, Canis lupus familiaris, Urine
Canis familiaris [9] = test: Saluretic activity in dog assessed as urinary excretion of chloride level at 0.25 mg/kg, iv after 3 hrs; format: functional, Canis lupus familiaris, Urine
Canis familiaris [10] = test: Saluretic activity in dog assessed as urinary excretion of chloride level at 0.1 mg/kg, iv after 3 hrs; format: functional, Canis lupus familiaris, Urine
Canis familiaris [11] = test: Diuretic activity in dog assessed as urine volume measured in water at 1 mg/kg, iv after 3 hrs; format: functional, Canis lupus familiaris
Canis familiaris [12] = test: Saluretic activity in dog assessed as urinary excretion of sodium level at 0.1 mg/kg, iv after 3 hrs; format: functional, Canis lupus familiaris, Urine
Canis familiaris [13] = test: Saluretic activity in dog assessed as urinary excretion of potassium level at 0.25 mg/kg, iv after 3 hrs; format: functional, Canis lupus familiaris, Urine
Canis familiaris [14] = test: Diuretic activity in dog assessed as urine volume measured in water at 1 mg/kg, po after 3 hrs; format: functional, Canis lupus familiaris
Canis familiaris [15] = test: Saluretic activity in dog assessed as urinary excretion of potassium level at 0.1 mg/kg, po after 3 hrs; format: functional, Canis lupus familiaris, Urine
Canis familiaris [16] = test: Saluretic activity in dog assessed as urinary excretion of chloride level at 1 mg/kg, po after 3 hrs; format: functional, Canis lupus familiaris, Urine
Canis familiaris [17] = test: Saluretic activity in dog assessed as urinary excretion of sodium level at 1 mg/kg, po after 3 hrs; format: functional, Canis lupus familiaris, Urine
Canis familiaris [18] = test: Saluretic activity in dog assessed as urinary excretion of chloride level at 0.1 mg/kg, po after 3 hrs; format: functional, Canis lupus familiaris, Urine
Canis familiaris [19] = test: Saluretic activity in dog assessed as urinary excretion of potassium level at 1 mg/kg, po after 3 hrs; format: functional, Canis lupus familiaris, Urine
Canis familiaris [20] = test: Saluretic activity in dog assessed as urinary excretion of sodium level at 0.1 mg/kg, po after 3 hrs; format: functional, Canis lupus familiaris, Urine
Canis familiaris [21] = test: Diuretic activity in dog assessed as urine volume measured in water at 0.1 mg/kg, po after 3 hrs; format: functional, Canis lupus familiaris
Canis familiaris [22] = test: Saluretic activity in dog assessed as urinary excretion of chloride level at 0.25 mg/kg, po after 3 hrs; format: functional, Canis lupus familiaris, Urine
Canis familiaris [23] = test: Saluretic activity in dog assessed as urinary excretion of potassium level at 0.25 mg/kg, po after 3 hrs; format: functional, Canis lupus familiaris, Urine
Canis familiaris [24] = test: Saluretic activity in dog assessed as urinary excretion of sodium level at 0.25 mg/kg, po after 3 hrs; format: functional, Canis lupus familiaris, Urine
Canis familiaris [25] = test: Diuretic activity in dog assessed as urine volume measured in water at 0.25 mg/kg, po after 3 hrs; format: functional, Canis lupus familiaris
Canis familiaris [26] = test: Diuretic activity in dog assessed as urine volume measured in water at 0.01 mg/kg, iv after 3 hrs; format: functional, Canis lupus familiaris
Canis familiaris [27] = test: Saluretic activity in dog assessed as urinary excretion of potassium level at 0.01 mg/kg, iv after 3 hrs; format: functional, Canis lupus familiaris, Urine
Canis familiaris [28] = test: Saluretic activity in dog assessed as urinary excretion of chloride level at 0.01 mg/kg, iv after 3 hrs; format: functional, Canis lupus familiaris, Urine
Canis familiaris [29] = test: Saluretic activity in dog assessed as urinary excretion of sodium level at 0.01 mg/kg, iv after 3 hrs; format: functional, Canis lupus familiaris, Urine

## CS(=O)(=O)c1cc(C(=O)O)c(NCc2ccccc2)cc1Sc1ccccc1
Canis familiaris [1]
  Activity: inactive

## CS(=O)(=O)c1cc(C(=O)O)cc(NCc2ccccc2)c1Oc1ccccc1
Canis familiaris [2]
  Activity: 4.8 milliequivalent/kg
Canis familiaris [3]
  Activity: 0.98 milliequivalent/kg
Canis familiaris [4]
  Activity: 9 mL/kg
Canis familiaris [5]
  Activity: 5.1 milliequivalent/kg
Canis familiaris [6]
  Activity: 3 milliequivalent/kg
Canis familiaris [7]
  Activity: 21 mL/kg
Canis familiaris [8]
  Activity: 0.2 milliequivalent/kg
Canis familiaris [9]
  Activity: 3.5 milliequivalent/kg
Canis familiaris [10]
  Activity: 1.4 milliequivalent/kg
Canis familiaris [11]
  Activity: 31 mL/kg
Canis familiaris [12]
  Activity: 1.1 milliequivalent/kg
Canis familiaris [13]
  Activity: 0.99 milliequivalent/kg

## O=C(O)c1cc(NCc2ccccc2)c2c(c1)S(=O)(=O)CC2(O)c1ccccc1 (configuration not stated)
Canis familiaris [11]; Canis lupus familiaris
  Activity: inactive

## CCCCOc1cc(C(=O)O)cc(S(C)(=O)=O)c1C(=O)c1ccccc1
Canis familiaris [14]
  Activity: 24 mL/kg
Canis familiaris [15]
  Activity: 0.22 milliequivalent/kg
Canis familiaris [16]
  Activity: 3.4 milliequivalent/kg
Canis familiaris [17]
  Activity: 2.6 milliequivalent/kg
Canis familiaris [18]
  Activity: 0.8 milliequivalent/kg
Canis familiaris [19]
  Activity: 0.54 milliequivalent/kg
Canis familiaris [20]
  Activity: 0.5 milliequivalent/kg
Canis familiaris [21]
  Activity: 4 mL/kg

## CCCCNc1cc(C(=O)O)cc(S(C)(=O)=O)c1Oc1ccccc1
Canis familiaris [2]
  Activity: 2.1 milliequivalent/kg
Canis familiaris [3]
  Activity: 0.22 milliequivalent/kg
Canis familiaris [4]
  Activity: 3 mL/kg
Canis familiaris [5]
  Activity: 2.7 milliequivalent/kg
Canis familiaris [8]
  Activity: 0.19 milliequivalent/kg
Canis familiaris [10]
  Activity: 0.4 milliequivalent/kg
Canis familiaris [11]
  Activity: 15 mL/kg
Canis familiaris [12]
  Activity: 0.6 milliequivalent/kg

## CSc1cc(C(=O)O)cc(NCc2ccccc2)c1Oc1ccccc1
Canis familiaris [2]
  Activity: 0.6 milliequivalent/kg
Canis familiaris [3]
  Activity: 0.21 milliequivalent/kg
Canis familiaris [5]
  Activity: 0.9 milliequivalent/kg
Canis familiaris [11]
  Activity: 7 mL/kg

## CCCCNc1cc(C(=O)O)cc2c1C(O)(c1ccccc1)CS2(=O)=O (configuration not stated)
Canis familiaris [11]; Canis lupus familiaris
  Activity: inactive

## CS(=O)(=O)c1cc(C(=O)O)cc(NCc2ccccc2)c1Nc1ccccc1
Canis familiaris [7]; Canis lupus familiaris
  Activity: inactive

## CS(=O)(=O)c1cc(C(=O)O)c(NCc2ccccc2)cc1Oc1ccccc1
Canis familiaris [1]
  Activity: inactive

## CS(=O)(=O)c1cc(C(=O)O)c(NCc2ccco2)cc1Oc1ccccc1
Canis familiaris [2]
  Activity: 1.7 milliequivalent/kg
Canis familiaris [3]
  Activity: 0.39 milliequivalent/kg
Canis familiaris [5]
  Activity: 2 milliequivalent/kg
Canis familiaris [11]
  Activity: 14 mL/kg

## CS(=O)(=O)c1cc(C(=O)O)cc(SCc2ccccc2)c1Sc1ccccc1
Canis familiaris [14]; Canis lupus familiaris
  Activity: inactive

## CCCCNc1cc(C(=O)O)cc(S(C)(=O)=O)c1C(=O)c1ccccc1
Canis familiaris [22]
  Activity: 1.2 milliequivalent/kg
Canis familiaris [23]
  Activity: 0.19 milliequivalent/kg
Canis familiaris [24]
  Activity: 0.9 milliequivalent/kg
Canis familiaris [25]
  Activity: 9 mL/kg

## CS(=O)(=O)c1cc(C(=O)O)cc(NCc2ccccc2)c1Sc1ccccc1
Canis familiaris [2]
  Activity: 2 milliequivalent/kg
Canis familiaris [3]
  Activity: 0.28 milliequivalent/kg
Canis familiaris [5]
  Activity: 2.4 milliequivalent/kg
Canis familiaris [6]
  Activity: 0.9 milliequivalent/kg
Canis familiaris [7]
  Activity: 6 mL/kg
Canis familiaris [9]
  Activity: 1 milliequivalent/kg
Canis familiaris [11]
  Activity: 17 mL/kg
Canis familiaris [13]
  Activity: 0.18 milliequivalent/kg

## CS(=O)(=O)c1cc(C(=O)O)cc(NCc2ccccc2)c1C(=O)c1ccccc1
Canis familiaris [14]
  Activity: 33 mL/kg
Canis familiaris [15]
  Activity: 0.28 milliequivalent/kg
Canis familiaris [16]
  Activity: 4.7 milliequivalent/kg
Canis familiaris [17]
  Activity: 3.9 milliequivalent/kg
Canis familiaris [18]
  Activity: 1.7 milliequivalent/kg
Canis familiaris [19]
  Activity: 0.64 milliequivalent/kg
Canis familiaris [20]
  Activity: 1.2 milliequivalent/kg
Canis familiaris [21]
  Activity: 12 mL/kg

## C[S+]([O-])c1cc(C(=O)O)cc(NCc2ccccc2)c1Oc1ccccc1 (configuration not stated)
Canis familiaris [2]
  Activity: 0.9 milliequivalent/kg
Canis familiaris [3]
  Activity: 0.17 milliequivalent/kg
Canis familiaris [5]
  Activity: 1.1 milliequivalent/kg
Canis familiaris [11]
  Activity: 7 mL/kg

## CCCCNc1cc(C(=O)O)cc2c1C(c1ccccc1)=CS2(=O)=O
Canis familiaris [11]; Canis lupus familiaris
  Activity: inactive

## CCCCSc1cc(C(=O)O)cc(S(C)(=O)=O)c1Oc1ccccc1
Canis familiaris [2]
  Activity: 3 milliequivalent/kg
Canis familiaris [3]
  Activity: 0.64 milliequivalent/kg
Canis familiaris [4]; Canis lupus familiaris
  Activity: inactive
Canis familiaris [5]
  Activity: 3.2 milliequivalent/kg
Canis familiaris [11]
  Activity: 21 mL/kg

## NS(=O)(=O)c1cc(C(=O)O)c(NCc2ccco2)cc1Oc1ccccc1
Canis familiaris [4]
  Activity: 25 mL/kg
Canis familiaris [26]
  Activity: 8 mL/kg
Canis familiaris [27]
  Activity: 0.27 milliequivalent/kg
Canis familiaris [8]
  Activity: 0.45 milliequivalent/kg
Canis familiaris [10]
  Activity: 3.8 milliequivalent/kg
Canis familiaris [28]
  Activity: 0.8 milliequivalent/kg
Canis familiaris [12]
  Activity: 2.9 milliequivalent/kg
Canis familiaris [29]
  Activity: 0.6 milliequivalent/kg

## CS(=O)(=O)c1cc(C(=O)O)c(NCc2ccccc2)cc1Nc1ccccc1
Canis familiaris [1]
  Activity: inactive

## CS(=O)(=O)c1cc(C(=O)O)cc(OCc2ccccc2)c1C(=O)c1ccccc1
Canis familiaris [15]
  Activity: 0.25 milliequivalent/kg
Canis familiaris [18]
  Activity: 1.7 milliequivalent/kg
Canis familiaris [20]
  Activity: 1.2 milliequivalent/kg
Canis familiaris [21]
  Activity: 11 mL/kg

## CCCCNc1cc(C(=O)O)cc(S(N)(=O)=O)c1Oc1ccccc1 [BUMETANIDE]
Canis familiaris [4]
  Activity: 26 mL/kg
Canis familiaris [15]
  Activity: 0.49 milliequivalent/kg
Canis familiaris [26]
  Activity: 10 mL/kg
Canis familiaris [6]
  Activity: 4 milliequivalent/kg
Canis familiaris [27]
  Activity: 0.27 milliequivalent/kg
Canis familiaris [7]
  Activity: 39 mL/kg
Canis familiaris [8]
  Activity: 0.44 milliequivalent/kg
Canis familiaris [9]
  Activity: 5.7 milliequivalent/kg
Canis familiaris [18]
  Activity: 4.5 milliequivalent/kg
Canis familiaris [10]
  Activity: 3.5 milliequivalent/kg
Canis familiaris [28]
  Activity: 1.4 milliequivalent/kg
Canis familiaris [12]
  Activity: 2.4 milliequivalent/kg
Canis familiaris [13]
  Activity: 0.84 milliequivalent/kg
Canis familiaris [20]
  Activity: 3.3 milliequivalent/kg
Canis familiaris [21]
  Activity: 31 mL/kg
Canis familiaris [29]
  Activity: 0.92 milliequivalent/kg

## O=C(O)c1cc(NCc2ccccc2)c2c(c1)S(=O)(=O)C=C2c1ccccc1
Canis familiaris [11]; Canis lupus familiaris
  Activity: inactive
